Consider 58 compounds from patent publication US6534524B1, “Indazole compounds and pharmaceutical compositions for inhibiting protein kinases, and methods for their use” (Agouron Pharmaceuticals, Inc., priority 1999, dated 2003).

The assay deals with human umbilical vein endothelial cells (HUVEC). Nature of the assay: HUVEC proliferation assay (VEGF-stimulated, MTT).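 As to % inhibition of the proliferation of HUVEC: relative to VEGF-stimulated control minus starvation-medium baseline.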 It is filed as cell-based. The settings on record: for % inhibition: Library III, HUVEC proliferation, nominal concentration of 0.5 nM; for % inhibition / % inhibition of the proliferation of HUVEC: crude reaction mixtures.
The mark [1] stands for this setting: Library II, Y=S, 0.5 mM (column head; text: nominal 0.5 nM).
The mark [2] stands for this setting: Library II, Y=S, 2 mM (column head; text: nominal 2 nM).
[3] abbreviates: Library I, Y = CO, nominal concentration of 10 nM.
Where [4] appears, read: Library I, Y = NH, nominal concentration of 10 nM.
Where [5] appears, read: Library I, Y = O, nominal concentration of 10 nM.

By % inhibition is commonly meant the change of the read-out against control, counted positive when it falls. The IC50 is the concentration that inhibits the measured activity by half.

SMILES strings stand for the structures.

Turning to `O=C(NCc1cccc(Cl)c1)c1ccccc1Sc1ccc2c(/C=C/c3ccccn3)n[nH]c2c1`, the “% inhibition” value turned out to be 24%.
Take `O=C(NN1CCCC1)c1ccccc1Sc1ccc2c(/C=C/c3ccccn3)n[nH]c2c1`: the “% inhibition of the proliferation of HUVEC” value (“% inhibition … of HUVEC” for short) runs as follows: under setting [1], 17%; under setting [2], 23%.
Regarding `CC(C)(C)c1ccc(NC(=O)c2ccccc2Sc2ccc3c(/C=C/c4ccccn4)n[nH]c3c2)cc1`, the “% inhibition” value is given as −1%.
On to `COc1ccc(NC(=O)c2ccccc2Sc2ccc3c(/C=C/c4ccccn4)n[nH]c3c2)c(OC)n1`, for which the “% inhibition” value is listed as 20%.
`Cc1cc(NC(=O)c2ccccc2Sc2ccc3c(/C=C/c4ccccn4)n[nH]c3c2)n(C)n1`: the “% inhibition … of HUVEC” value runs as follows: under setting [1], 39%; under setting [2], 13%.
Regarding `Cc1cccc(NC(=O)c2ccccc2Sc2ccc3c(/C=C/c4ccccn4)n[nH]c3c2)n1`, the “% inhibition” value is given as 10%.
Consider `O=C(Nc1cccnc1)c1ccc2c(-c3nc4ccccc4[nH]3)n[nH]c2c1`, for which the “% inhibition … of HUVEC” value was −2% under setting [3], 17% under setting [4] and 25% under setting [5].
Consider `O=C(Nc1cccc(C(=O)c2ccc3c(/C=C/c4ccccn4)n[nH]c3c2)c1)Oc1ccccc1` [Example 41(cc), 6-[3-(Phenoxyamindo)benzoyl]-3-E-[2-(pyridin-2-yl)ethenyl]-1H-indazole], for which the IC50 (Homo sapiens, HUVEC, read-out: HUVEC + albumin IC50) is over 100 nM.
Regarding `O=C(NCCCN1CCCCCC1)c1ccccc1Sc1ccc2c(/C=C/c3ccccn3)n[nH]c2c1`, the “% inhibition … of HUVEC” value by setting is: under setting [1], 25%; under setting [2], −5%.
For the compound `O=C(NNCC(F)(F)F)c1ccccc1Sc1ccc2c(/C=C/c3ccccn3)n[nH]c2c1`, the “% inhibition … of HUVEC” value was determined as 16% under setting [1] and 42% under setting [2].
Turning to `Cc1ccc(NC(=O)c2ccccc2Sc2ccc3c(/C=C/c4ccccn4)n[nH]c3c2)nc1`, the “% inhibition” value was −20%.
As to `CC(CNC(=O)c1ccccc1Sc1ccc2c(/C=C/c3ccccn3)n[nH]c2c1)N(C)C` (stereo not drawn), the “% inhibition … of HUVEC” value by setting is: under setting [1], −9%; under setting [2], 1%.
As to `O=C(NC1Cc2ccccc2C1)c1ccccc1Sc1ccc2c(/C=C/c3ccccn3)n[nH]c2c1`, the “% inhibition” value turned out to be 7%.
The same measure, in the same setting: in the case of `Cc1cc(NC(=O)c2ccccc2Sc2ccc3c(/C=C/c4ccccn4)n[nH]c3c2)ccc1F` it was 9%.
Turning to `CC(C)OCCCNC(=O)c1ccccc1Sc1ccc2c(/C=C/c3ccccn3)n[nH]c2c1`, the “% inhibition … of HUVEC” value is, setting by setting: under setting [1], 34%; under setting [2], 99%.
For the compound `O=C(Nc1ncnc2[nH]cnc12)c1ccc2c(-c3nc4ccccc4[nH]3)n[nH]c2c1` [drawing 600], the “% inhibition … of HUVEC” value by setting is: under setting [3], 27%; under setting [4], −9%; under setting [5], 52%.
For `CCOc1ccccc1CNC(=O)c1ccccc1Sc1ccc2c(/C=C/c3ccccn3)n[nH]c2c1`, the “% inhibition” value is recorded as −9%.
Regarding `O=C(Nc1cccc(CO)c1)c1ccccc1Sc1ccc2c(/C=C/c3ccccn3)n[nH]c2c1`, the “% inhibition” value was 14%.
`CCOC(=O)CC(C)NC(=O)c1ccc2c(-c3nc4ccccc4[nH]3)n[nH]c2c1` (stereo not drawn): the “% inhibition … of HUVEC” value runs as follows: under setting [3], 31%; under setting [4], −17%; under setting [5], 20%.
`CCC(C)C(CO)NC(=O)c1ccccc1Sc1ccc2c(C=Cc3ccccn3)n[nH]c2c1` (stereo not drawn): the “% inhibition” value was −40%.
Same read-out and setting: in the case of `O=C(Nc1ccncn1)c1ccccc1Sc1ccc2c(/C=C/c3ccccn3)n[nH]c2c1` it was −10%.
As for `CCCCC(=O)NNC(=O)c1ccccc1Sc1ccc2c(/C=C/c3ccccn3)n[nH]c2c1`, the “% inhibition … of HUVEC” value runs as follows: under setting [1], 40%; under setting [2], 94%.
Consider `O=C(Nc1cc2ccccc2cc1O)c1ccccc1Sc1ccc2c(/C=C/c3ccccn3)n[nH]c2c1`, for which the “% inhibition” value is 18%.
For `COc1ccc(OC)c(NC(=O)c2ccccc2Sc2ccc3c(/C=C/c4ccccn4)n[nH]c3c2)c1`, the “% inhibition” value was −5%.
Same read-out and setting: in the case of `COC(=O)c1ccccc1NC(=O)c1ccccc1Sc1ccc2c(/C=C/c3ccccn3)n[nH]c2c1` it was 3%.
On to `O=C(NCCCO)c1ccc2c(-c3nc4ccccc4[nH]3)n[nH]c2c1`, for which the “% inhibition … of HUVEC” value was determined as 5% under setting [3], 16% under setting [4] and 25% under setting [5].
Consider `O=C(NCCN1CCNC1=O)c1ccccc1Sc1ccc2c(/C=C/c3ccccn3)n[nH]c2c1`, for which the “% inhibition … of HUVEC” value came out at 5% under setting [1] and 1% under setting [2].
With `O=C(Nc1ccc(Cl)nc1)c1ccccc1Sc1ccc2c(/C=C/c3ccccn3)n[nH]c2c1`, the “% inhibition” value stood at 2%.
On the same count and under the same terms, in the case of `COc1cccc(NC(=O)c2ccccc2Sc2ccc3c(/C=C/c4ccccn4)n[nH]c3c2)c1` it was 11%; in that of `CCc1ccnc(NC(=O)c2ccccc2Sc2ccc3c(/C=C/c4ccccn4)n[nH]c3c2)c1`, 20%.
The same measure, in the same setting: in the case of `O=C(Nc1nc(Cl)ncc1F)c1ccccc1Sc1ccc2c(/C=C/c3ccccn3)n[nH]c2c1` it was 11%; in that of `COC(=O)c1ccc(C)c(NC(=O)c2ccccc2Sc2ccc3c(/C=C/c4ccccn4)n[nH]c3c2)c1`, −9%.
For the compound `O=C(c1ccc2c(-c3nc4ccccc4[nH]3)n[nH]c2c1)N1CCC(O)C1` (stereo not drawn), the “% inhibition … of HUVEC” value by setting is: under setting [3], 10%; under setting [4], −2%; under setting [5], 19%.
On to `O=C(Nc1nccs1)c1ccccc1Sc1ccc2c(/C=C/c3ccccn3)n[nH]c2c1` [drawing 740], for which the “% inhibition … of HUVEC” value is, setting by setting: under setting [1], 33%; under setting [2], 94%.
`CCSc1nnc(NC(=O)c2ccccc2Sc2ccc3c(/C=C/c4ccccn4)n[nH]c3c2)s1`: the “% inhibition” value was 17%.
Turning to `O=C(NC1CCS(=O)(=O)C1)c1ccc2c(-c3nc4ccccc4[nH]3)n[nH]c2c1` (stereo not drawn) [drawing 576], the “% inhibition … of HUVEC” value is, setting by setting: under setting [3], 47%; under setting [4], 10%; under setting [5], 17%.
As for `Cc1ccc2nc(NC(=O)c3ccccc3Sc3ccc4c(/C=C/c5ccccn5)n[nH]c4c3)sc2c1`, the “% inhibition” value was −9%.
With `NC(=O)NNC(=O)c1ccccc1Sc1ccc2c(/C=C/c3ccccn3)n[nH]c2c1`, the “% inhibition … of HUVEC” value runs as follows: under setting [1], 19%; under setting [2], 5%.
With `COC(=O)c1ccc(NC(=O)c2ccccc2Sc2ccc3c(/C=C/c4ccccn4)n[nH]c3c2)cc1`, the “% inhibition” value was −1%.
Regarding `O=C(Nc1nnn[nH]1)c1ccccc1Sc1ccc2c(/C=C/c3ccccn3)n[nH]c2c1`, the “% inhibition … of HUVEC” value by setting is: under setting [1], 21%; under setting [2], 64%.
As for `C#CC1(NC(=O)c2ccccc2Sc2ccc3c(/C=C/c4ccccn4)n[nH]c3c2)CCCCC1`, the “% inhibition” value stood at 3%.
For `O=C(NCCc1cccc(Cl)c1)c1ccccc1Sc1ccc2c(/C=C/c3ccccn3)n[nH]c2c1`, the “% inhibition” value stood at 0%.
On to `O=C(NCS(=O)(=O)O)c1ccccc1Sc1ccc2c(/C=C/c3ccccn3)n[nH]c2c1`, for which the “% inhibition … of HUVEC” value under setting [1] amounted to 2% and the “% inhibition … of HUVEC” value under setting [2] is listed as −3%.
As to `COc1ccccc1CCNC(=O)c1ccccc1Sc1ccc2c(/C=C/c3ccccn3)n[nH]c2c1`, the “% inhibition” value is on record as 10%.
For the compound `O=C(O)CNC(=O)c1ccccc1Sc1ccc2c(/C=C/c3ccccn3)n[nH]c2c1`, the “% inhibition … of HUVEC” value came out at 8% under setting [1] and 23% under setting [2].
For the compound `CCCCN(CC)CCNC(=O)c1ccccc1Sc1ccc2c(/C=C/c3ccccn3)n[nH]c2c1`, the “% inhibition … of HUVEC” value under setting [1] was determined as 2% and the “% inhibition … of HUVEC” value under setting [2] came to 6%.
Regarding `O=C(Nc1cccc(Cl)c1)c1ccccc1Sc1ccc2c(/C=C/c3ccccn3)n[nH]c2c1` [drawing 1041], the “% inhibition” value was −15%.
As for `O=C(NCCN1CCCCC1)c1ccccc1Sc1ccc2c(/C=C/c3ccccn3)n[nH]c2c1`, the “% inhibition … of HUVEC” value under setting [1] is listed as 5% and the “% inhibition … of HUVEC” value under setting [2] is recorded as 19%.
For `CN1CCN(NC(=O)c2ccccc2Sc2ccc3c(/C=C/c4ccccn4)n[nH]c3c2)CC1`, in that order: 19% and −1%.
In the case of `Cc1ccnc(NC(=O)c2ccccc2Sc2ccc3c(/C=C/c4ccccn4)n[nH]c3c2)c1`, the “% inhibition” value is on record as −6%.
Still for that read-out and setting: in the case of `O=C(NCCc1ccc(Cl)cc1)c1ccccc1Sc1ccc2c(/C=C/c3ccccn3)n[nH]c2c1` it was 0%.
On to `O=C(NC1CCCCC1)c1ccccc1Sc1ccc2c(/C=C/c3ccccn3)n[nH]c2c1`, for which the “% inhibition … of HUVEC” value under setting [1] came to 12% and the “% inhibition … of HUVEC” value under setting [2] is on record as 76%.
Regarding `O=C(Nc1ncccc1O)c1ccccc1Sc1ccc2c(/C=C/c3ccccn3)n[nH]c2c1`, the “% inhibition” value is on record as 4%.
On the same count and under the same terms, in the case of `O=C(N[C@H]1CC[C@H](O)CC1)c1ccccc1Sc1ccc2c(/C=C/c3ccccn3)n[nH]c2c1` it was 18%.
With `O=C(Nc1ccc2[nH]ncc2c1)c1ccc2c(-c3nc4ccccc4[nH]3)n[nH]c2c1`, the “% inhibition … of HUVEC” value is 28% under setting [3], −1% under setting [4] and 80% under setting [5].
With `O=C(Nc1ccc(Cl)cc1CO)c1ccccc1Sc1ccc2c(/C=C/c3ccccn3)n[nH]c2c1`, the “% inhibition” value is on record as 48%.
As to `O=C(NC1CCC(O)CC1)c1ccccc1Sc1ccc2c(C=Cc3ccccn3)n[nH]c2c1` (stereo not drawn), the “% inhibition … of HUVEC” value was found to be 23% under setting [1] and 6% under setting [2].
With `O=C(Nc1ccc2[nH]ccc2c1)c1ccccc1Sc1ccc2c(/C=C/c3ccccn3)n[nH]c2c1`, the “% inhibition” value is on record as 43%.
